Numbers after ± are expanded uncertainties.
Assay: molar heat capacity at constant pressure
Details: 101.33 kPa, Liquid, Small sample (50 mg) DSC

CCCCOC(=O)CCC(C)=O [butyl levulinate]
Details | molar heat capacity at constant pressure [J/K/mol]
302.66 K | 336.87 ± 8.3
303.16 K | 337.38 ± 8.3
303.66 K | 338.59 ± 8.3
304.16 K | 338.42 ± 8.3
304.66 K | 337.73 ± 8.3
305.16 K | 337.38 ± 8.3
305.66 K | 337.73 ± 8.3
306.16 K | 337.55 ± 8.3
306.66 K | 338.42 ± 8.3
307.16 K | 339.28 ± 8.3
307.66 K | 338.76 ± 8.3
308.16 K | 337.9 ± 8.3
308.66 K | 338.24 ± 8.3
309.16 K | 338.42 ± 8.3
309.66 K | 339.1 ± 8.3
310.16 K | 338.93 ± 8.3
310.66 K | 340.14 ± 8.3
311.16 K | 338.76 ± 8.3
311.66 K | 338.59 ± 8.3
312.16 K | 338.76 ± 8.3
312.66 K | 338.76 ± 8.3
313.16 K | 338.42 ± 8.3
313.66 K | 338.76 ± 8.3
314.16 K | 339.97 ± 8.3
314.66 K | 339.79 ± 8.3
315.16 K | 339.97 ± 8.3
315.66 K | 339.62 ± 8.3
316.16 K | 340.31 ± 8.3
316.66 K | 340.14 ± 8.3
317.16 K | 340.65 ± 8.3
317.66 K | 340.65 ± 8.3
318.16 K | 341.17 ± 8.4
318.66 K | 341 ± 8.4
319.16 K | 341.17 ± 8.4
319.66 K | 341 ± 8.4
320.16 K | 340.14 ± 8.3
320.66 K | 341.69 ± 8.4
321.16 K | 341.69 ± 8.4
321.66 K | 341 ± 8.4
322.16 K | 341 ± 8.4
322.66 K | 341.69 ± 8.4
323.16 K | 342.03 ± 8.4
323.66 K | 342.38 ± 8.4
324.16 K | 341.69 ± 8.4
324.66 K | 342.89 ± 8.4
325.16 K | 342.2 ± 8.4
325.66 K | 341.52 ± 8.4
326.16 K | 342.2 ± 8.4
326.66 K | 343.24 ± 8.4
327.16 K | 342.89 ± 8.4
327.66 K | 343.07 ± 8.4
328.16 K | 343.41 ± 8.4
328.66 K | 341.34 ± 8.4
329.16 K | 341.86 ± 8.4
329.66 K | 342.38 ± 8.4
330.16 K | 342.89 ± 8.4
330.66 K | 342.89 ± 8.4
331.16 K | 343.07 ± 8.4
331.66 K | 342.38 ± 8.4
332.16 K | 342.72 ± 8.4
332.66 K | 343.58 ± 8.4
333.16 K | 343.24 ± 8.4
333.66 K | 344.27 ± 8.4
334.16 K | 345.13 ± 8.4
334.66 K | 344.44 ± 8.4
335.16 K | 345.48 ± 8.4
335.66 K | 344.79 ± 8.4
336.16 K | 344.27 ± 8.4
336.66 K | 345.65 ± 8.4
337.16 K | 345.3 ± 8.4
337.66 K | 345.3 ± 8.4
338.16 K | 346.34 ± 8.4
338.66 K | 346.51 ± 8.4
339.16 K | 345.82 ± 8.4
339.66 K | 346.34 ± 8.4
340.16 K | 347.03 ± 8.4
340.66 K | 346.17 ± 8.4

Reference: the NIST ThermoML archive (doi:10.1016/j.jct.2019.03.040)
